Data set [1] has as its system MDA-MB-468 breast cancer cells. In words: Cytotoxicity test (CCK-8). Type of data set: cell-based. Particulars: Homo sapiens, MDA-MB-468, 48 h, CCK-8, 48 h; read-out: IC50 against MDA-MB-468 breast cancer cells. The method, boiled down:
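Cells seeded at 12,000/well in L15 for 24 h, then exposed 48 h to compounds at 0.41-100.00 µM (DMSO <0.4%). Viability by 10% CCK-8, 2 h at 37 °C, absorbance 450 nm, expressed as percent of control.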

Data set [2] has as its system primary cortical astrocytes (native Kir4.1 channels). Nature of the data set: Patch clamp of primary cultured WT astrocytes (native Kir4.1). In kind it is cell-based, mouse. As for the experimental part: Astrocytes were isolated and cultured as previously described.^[ [16] ^] Briefly, the cortices from P1‐P4 mouse pups were dissected and incubated for 25 min in Hank's Balanced Salt Solution (22.5 ml) with 2.5% trypsin (2.5 ml) at 37 °C. Cells were dissociated in cultured medium (DMEM/F12 supplemented with 10% fetal bovine serum and 1% penicillin and streptomycin) and filtered with a 70‐µm cell strainer. Cell suspensions were cultured in PDL‐pretreated 75‐cm^2 flasks for the initial seven days, with half of the medium replaced every 2 days. Subsequently, the cultures were shaken at 220 rpm for 6 h at 37 °C to remove microglia and oligodendrocytes from the astrocyte layers. The astrocytes were harvested, reseeded in two new flasks, and cultured in an incubator for 14 days. For Kir4.1 deletion in cell cultures, 4‐OH tamoxifen (final concentration: 1 µM, Felixbio) was added into Kir4.1^flox/flox: Aldh1l1‐Cre/ERT2 cortical cultures at DIV 2 and DIV 4, respectively, and completely removed at DIV7 when astrocytes were reseeded in fresh culture medium.
Whole‐cell patch‐clamp recordings were obtained either in transiently transfected CHO‐K1 cells or in primary cultured astrocytes at room temperature using standard patch‐clamp techniques with an Axopatch‐700B amplifier (Axon Instruments). The signals were filtered at 2 kHz and sampled at 20 kHz using the Digidata 1440A interface (Axon Instruments). The resistance of borosilicate glass pipettes was typically 2–4 MΩ when filled with the internal solution. Drug application was facilitated using a BPS perfusion system (ALA Scientific Instruments). Macroscopic currents generated by expressed potassium channels were recorded under the voltage‐clamp conditions with an internal pipette solution composed of (in mM): 140 KCl, 5 NaCl, 1 CaCl2, 1 MgCl2, 10 HEPES, and 10 EGTA, pH 7.2 adjusted with KOH. The external solution contained (in mM): 140 NaCl, 5 KCl, 2 CaCl2, 1 MgCl2, 10 glucose, and 10 HEPES, pH 7.4 adjusted with NaOH. Currents were elicited with a hyperpolarized voltage at −120 mV from the holding potential of −80 mV, followed by a ramp voltage depolarizing to +50 mV. Astrocytic resting membrane potentials were recorded under current‐clamp conditions (I = 0 pA) using standard internal and external solutions, determined immediately after achieving whole‐cell mode.
In general terms: Patch clamp records ionic current or voltage across a cell membrane.

For data set [3], the system named is C57BL/6J mice. Nature of the data set: Seizure threshold measurement in 6-Hz seizure test. In kind it is in vivo. Details: key to seizure incidence, Multiple dose-6 Hz / seizure incidence, Single dose-6 Hz: % of mice showing seizures. Particulars: for seizure incidence, Multiple dose-6 Hz / seizure incidence, Single dose-6 Hz: JX3212 10 mpk. An excerpt: Male C57BL/6J mice were subjected to corneal electroshock stimulation using a Grass S48 stimulator (Grass Technologies) with standardized parameters: frequency, 6 Hz; rectangular pulse width, 0.2 ms; and duration, 3 s. Seizure activity was operationally defined as the occurrence of any of the following behaviors: forelimb clonus, postictal immobility, facial myoclonus, staring behavior, orofacial automatization (chewing/unilateral pawing), or Straub tail posture. […] The seizure incidence was compared between the vehicle‐ and JX3212‐treated groups, with the CS50 threshold calculated as the minimal current intensity required to induce seizures in 50% of the subjects via probit analysis.

Data set [4] deals with C57BL/6J mice. Nature of the data set: Seizure threshold measurement in maximal electroshock (MES). Details: seizure incidence, Single dose-MES / seizure incidence, Multiple dose-MES: unit not given here. In kind it is in vivo. The settings on record: for seizure incidence, Multiple dose-MES / seizure incidence, Single dose-MES: JX3212 10 mpk. On the procedure:
Male C57BL/6J mice underwent corneal electroshock stimulation using an Orchid Scientifics EC‐02 stimulator with a fixed pulse duration of 0.2 s. The current intensity was titrated in a stepwise manner (0.1 mA increments) based on real‐time behavioral responses during serial testing. Seizure severity was quantified using the hindlimb tonic extension score, with rigorous blinding applied to the vehicle‐ and JX3212‐treated groups. Subsequently, CS50 values were determined.
Background: The maximal electroshock test induces tonic seizures with an electrical stimulus.

In data set [5] the test system is mice. In words: Rotarod test (RT). In kind it is in vivo. Particulars: chronic 10 mg kg−1 per day. As for the experimental part:
The rotarod test was designed to evaluate the coordination and motor performance of rodents. The speed and time were set for the rod rotators. All experimental mice were allowed to adapt to a lower speed (5 rpm). For the formal test, the mice were placed on a rod spinning at 20 rpm, and the duration that the mice were able to hold on the rod at this speed was recorded. The maximum test duration was 20 min.
In general terms: In the rotarod test animals must keep their balance on a rotating rod.

Setting [6] is: 10 mg kg−1, single or 14-day consecutive administration.

Molecules are shown by their SMILES.

A word on the IC50: it is the concentration at which inhibition is half-maximal. Turning to `c1ccc2c(c1)oc1ccc(Nc3ccnc(NCCCN4CCOCC4)n3)cc12` [JX3212, N^4-(dibenzo[b,d]furan-2-yl)-N^2-(3-morpholinopropyl)pyrimidine-2,4-diamine], the IC50 in data set [1] was 13.7 ± 0.61 µM. Further, the “astrocytic resting membrane potential (in words)” value in data set [2] (JX3212 3 µM, BaCl2 100 µM) is given as “marked depolarization”. Besides, the “astrocytic macroscopic slope conductance (in words)” value in data set [2] (WT astrocytes, 3 µM) is reported as “partially impaired the macroscopic slope conductance”. Further, the “astrocytic potassium currents (in words)” value in data set [2] (WT astrocytes, 3 µM) is “notably decreased potassium currents”. For the same compound, the “seizure susceptibility, 6-Hz seizure model (in words)” value in data set [3] (setting [6]) was “did not alter seizure susceptibility”. Also, the “seizure incidence, Multiple dose-6 Hz” value in data set [3] (stimulus 18 mA) turned out to be 25; in data set [3] (stimulus 20 mA), 50; in data set [3] (stimulus 22 mA) it was 75; in data set [3] (stimulus 26 mA), 87.5. For the same compound, the “seizure incidence, Single dose-6 Hz” value came out at 22.22 in data set [3] (stimulus 20 mA), 50 in data set [3] (stimulus 22 mA), 57.14 in data set [3] (stimulus 24 mA) and 85.71 in data set [3] (stimulus 26 mA). Moreover, in data set [4] (setting [6]), the “seizure susceptibility, maximal electronic seizure model (in words)” value is on record as “did not alter seizure susceptibility”. The “seizure incidence, Multiple dose-MES” value in data set [4] (stimulus 0.45 mA) was 0; in data set [4] (stimulus 0.55 mA), 12.5; in data set [4] (stimulus 0.65 mA), 50; in data set [4] (stimulus 0.75 mA), 87.5. Also, the “seizure incidence, Single dose-MES” value in data set [4] (stimulus 0.45 mA) was 0; in data set [4] (stimulus 0.55 mA), 37.5; in data set [4] (stimulus 0.65 mA), 50; in data set [4] (stimulus 0.75 mA), 75. Besides, the “rotarod falling latency vs vehicle (in words)” value in data set [5] is recorded as “showed no significant effects”.
